# Read-outs that look alike come from different tables or passages of the source.
# Tests used:
# [1] = tested on: leukemia cells and experimental cancer cells artificially generated by carcinogen virus and the like; details: cited from earlier work
# [2] = tested on: spontaneously generated human solid cancer cells; details: cited from earlier work
# BxPC-3 cell = details: 3 μg/ml adriamycin, from start of treatment; cited from earlier work
# incubated cancer cells = details: cited from earlier work
# AsPC-1 cell = details: 30 μg/ml adriamycin; cited from earlier work
# [3] = tested on: Human bibrosarcoma HT1080; experiment: Cytocidal activity, Trypan Blue; format: cell-based; details: read-out: IC50 (concentration required to kill 50% of cells)
# Protocol: (§1) Various cancer cells as shown in Table 1 below were incubated for 24 hours on such culture medium as shown in the table which contained polyoxypeptin or deoxypolyoxypeptin added at various concentrations. After staining with Trypan Blue, the number.of the dead cells was counted, and the concentration of polyoxypeptin or deoxypolyoxypeptin required to kill 50% of the total number of cells of the cancer cells under test, namely the value of IC50, was calculated therefrom.
# [4] = tested on: Rat fibroblast cell K-ras-NRK; experiment: Cytocidal activity, Trypan Blue; format: cell-based; details: read-out: IC50 (concentration required to kill 50% of cells)
# Protocol: as §1
# [5] = tested on: Human pancreatic adenocarcinoma cells PSN-1; experiment: Cytocidal activity, Trypan Blue; format: cell-based; details: read-out: IC50 (concentration required to kill 50% of cells)
# Protocol: as §1
# [6] = tested on: Human pancreatic adenocarcinoma cells BxPC-3; experiment: Cytocidal activity, Trypan Blue; format: cell-based; details: read-out: IC50 (concentration required to kill 50% of cells)
# Protocol: as §1
# [7] = tested on: Mouse fibroblast cell K-ras-NIH3T3; experiment: Cytocidal activity, Trypan Blue; format: cell-based; details: read-out: IC50 (concentration required to kill 50% of cells)
# Protocol: as §1
# [8] = tested on: Mouse fibroblast cell A4 (cerbB2-NIH3T3); experiment: Cytocidal activity, Trypan Blue; format: cell-based; details: read-out: IC50 (concentration required to kill 50% of cells)
# Protocol: as §1
# [9] = tested on: Human promyeloleukemia HL-60; experiment: Cytocidal activity, Trypan Blue; format: cell-based; details: read-out: IC50 (concentration required to kill 50% of cells)
# Protocol: as §1
# [10] = tested on: Human uterus body cancer HHUA; experiment: Cytocidal activity, Trypan Blue; format: cell-based; details: read-out: IC50 (concentration required to kill 50% of cells)
# Protocol: as §1
# [11] = tested on: Mouse fibroblast cell NIH3T3; experiment: Cytocidal activity, Trypan Blue; format: cell-based; details: read-out: IC50 (concentration required to kill 50% of cells)
# Protocol: as §1
# [12] = tested on: Human pancreatic adenocarcinoma cells AsPC-1; experiment: Cytocidal activity, Trypan Blue; format: cell-based; details: read-out: IC50 (concentration required to kill 50% of cells)
# Protocol: as §1
# Rat fibroblast cell NRK = experiment: Cytocidal activity, Trypan Blue; format: cell-based; details: read-out: IC50 (concentration required to kill 50% of cells)
# Protocol: as §1
# [13] = tested on: Human chronic promyeloleukemia K562; experiment: Cytocidal activity, Trypan Blue; format: cell-based; details: read-out: IC50 (concentration required to kill 50% of cells)
# Protocol: as §1
# Human epithelioma A431 = experiment: Cytocidal activity, Trypan Blue; format: cell-based; details: read-out: IC50 (concentration required to kill 50% of cells)
# Protocol: as §1
# [14] = tested on: Mouse fibroblast cell RSV-NIH3T3 (src-transformed NIH3T3); experiment: Cytocidal activity, Trypan Blue; format: cell-based; details: read-out: IC50 (concentration required to kill 50% of cells)
# Protocol: as §1
# [15] = tested on: Human T cell leukemia Jurkat; experiment: Cytocidal activity, Trypan Blue; format: cell-based; details: read-out: IC50 (concentration required to kill 50% of cells)
# Protocol: as §1
# [16] = tested on: Human pancreatic adenocarcinoma cells Panc-1; experiment: Cytocidal activity, Trypan Blue; format: cell-based; details: read-out: IC50 (concentration required to kill 50% of cells)
# Protocol: as §1
# mice = experiment: Acute toxicity in mice, single intravenous injection; format: in vivo, mouse; details: administered once by intravenous injection
# Escherichia coli = experiment: Antibacterial activity, serial dilution on Muller-Hinton agar; format: cell-based; details: gram-negative bacteria such as Escherichia coli
# Protocol: Antibacterial spectra of polyoxypeptin and deoxypoly-oxypeptin against various microorganisms were determined on Muller-Hinton agar medium by a serial dilution method on the basis of the standard method of Japan Society of Chemotherapy.
# [17] = tested on: other human solid cancer cells; experiment: Apoptosis induction on other human solid cancer cells; format: cell-based
# AsPC-1 cells [18] = experiment: Activity inhibitory to the proliferation of human pancreatic cancer cell AsPC-1 (MTT assay); format: cell-based; details: ASPC1, 48 h, read-out: IC50 (concentration at which proliferation of AsPC-1 cells was inhibited by 50%)
# Protocol: A cell suspension of AsPC-1 cells suspended in an RPMI 1640 culture medium containing 10% FBS was prepared, and 100 μl-portion each of said cell suspension was placed in a 96-well plastic plate in a proportion of 3×10^3 cells/well. Each plate was then incubated at 37° C. under a 5% CO2 for 1 day. Subsequently, polyoxypeptin or deoxypolyoxypeptin was added to the liquid culture medium present in each well at a concentration of 1, 3, 10, 30 or 100 ng/ml of said compound. Then the incubation of the cells was effected for 2 days. Then, the number of cells was counted by MTT assay method.
# Solubility = details: for Solubility in organic solvents: methanol, ethanol, aqueous ethanol, chloroform, ethyl acetate, acetone, (n-)butanol, acetonitrile, toluene, dimethylsulfoxide
# AsPC-1 cells [19] = experiment: Apoptosis-inducing activity on human pancreatic cancer cell AsPC-1 (Trypan Blue); format: cell-based; details: for IC50: Homo sapiens, read-out: IC50 (concentration at which cell death by apoptosis is induced at 50% of total AsPC-1 cells); for time after drug treatment in which apoptosis was induced on AsPC-1 cells: after the drug treatment
# Protocol: A cell suspension containing the AsPC-1 cells suspended in an RPMI 1640 culture medium containing 10% FBS was prepared, and 500 μl-portion each of the cell suspension was placed in a 24-well plastic plate in a proportion of 1×10^5 cells/well. The cell suspension was incubated at 37° C. under 5% CO2 for 1 day. The AsPC-1 cells adhered onto the bottom surface of each well. Subsequently, polyoxypeptin or deoxypolyoxypeptin was added to the liquid culture medium present in each well so as to give the substance under test at a concentration of 3, 100 or 300 μg/ml. The cells were incubated for 24 hours.
# Immediately after the incubation for 24 hours, the supernatant liquid (500 μl) of the culture medium remaining in each well was removed from each well of said plastic plate and discarded. Then, the plastic plate was washed twice with a PBS buffer solution (each 300 μl), and the washings were discharged. Thereafter, a trypsin-EDTA buffer solution (200 μl) was added to said plastic plate, and the incubation was effected at 37° C. under CO2 -free condition so as to peel the cells off from the plate. The cells so peeled were transferred to an Eppendorf tube. The Eppendorf tube was centrifuged (2400 rpm, 10 minutes) to deposit the cells down, and the super-natant was removed and discarded. A fresh amount of the liquid culture medium was added to the cells. An 80 μl-portion of the resulting cell suspension as formed in said tube was taken into another Eppendorf tube, to which were then added 20 μl of Trypan Blue staining solution (containing 4 mg/ml of Trypan Blue and 9 mg/ml of NaCl). The cell suspension was taken out from the resulting mixture by a pipette, and the cell suspension so pipetted was placed on a hemocytometer (made by Elma Co.). The cell sample was observed under a microscope of 100 magnifications. The number of the dead cells as blue-colored amongst the cells under observation, and the total number of whole cells under observation were counted.
# The survival rate (%) of the cells was calculated by an equation of 100-[(number of dead cells.div. total number of tested cells)×100].
compound,measurement,setting,value
COc1cccc2c1C(=O)c1c(O)c3c(c(O)c1C2=O)C[C@@](O)(C(=O)CO)C[C@@H]3O[C@H]1C[C@H](N)[C@H](O)[C@H](C)O1 [adriamycin],apoptosis induction on leukemia cells and experimental cancer cells,[1],can have an activity of inducing the apoptosis
same,apoptosis induction on many spontaneously generated human solid cancer cells,[2],does not induce apoptosis
same,time within which apoptosis is induced on BxPC-3 cell,BxPC-3 cell,≤ 24 h
same,apoptosis induction on some of incubated cancer cells,incubated cancer cells,have the activities of inducing the apoptosis
same,apoptosis induction on AsPC-1 cell,AsPC-1 cell,does not induce apoptosis
N.N.[Cl][Pt][Cl] [cisplatin],apoptosis induction on leukemia cells and experimental cancer cells,[1],can have an activity of inducing the apoptosis
same,apoptosis induction on many spontaneously generated human solid cancer cells,[2],does not induce apoptosis
same,apoptosis induction on some of incubated cancer cells,incubated cancer cells,have the activities of inducing the apoptosis
CCC(C)CC1CCC(O)(C(C)(O)C(=O)NC2C(=O)N3NCCCC3C(=O)N(O)C(C)C(=O)N3NCC(O)CC3C(=O)N3CCC(C)(O)C3C(=O)N(O)C(C(C)C)C(=O)OC2C(C)C)OC1CC (centres unmarked) [polyoxypeptin],IC50,"[3]; HT-1080, 24 h",0.02 µg/mL
same,IC50,[4]; 24 h,0.05 µg/mL
same,IC50,"[5]; PSN1, 24 h",0.01 µg/mL
same,IC50,"[6]; BXPC-3, 24 h",0.03 µg/mL
same,IC50,[7]; 24 h,0.1 µg/mL
same,IC50,[8]; 24 h,0.06 µg/mL
same,IC50,"[9]; HL-60, 24 h",0.04 µg/mL
same,IC50,[10]; 24 h,0.05 µg/mL
same,IC50,"[11]; NIH3T3, 24 h",0.05 µg/mL
same,IC50,"[12]; ASPC1, 24 h",0.08 µg/mL
same,IC50,Rat fibroblast cell NRK; 24 h,0.18 µg/mL
same,IC50,"[13]; K562, 24 h",0.02 µg/mL
same,IC50,"Human epithelioma A431; A-431, 24 h",0.03 µg/mL
same,IC50,"[14]; NIH3T3, 24 h",0.06 µg/mL
same,IC50,[15]; 24 h,0.05 µg/mL
same,IC50,"[16]; PANC-1, 24 h",0.05 µg/mL
same,LD50,mice,67.5 μg/mouse
same,antibacterial activity against gram-negative bacteria,Escherichia coli,did not exhibit any antibacterial activity
same,apoptosis-inducing activity on other human solid cancer cells,[17],have also an activity of inducing apoptosis
same,IC50,AsPC-1 cells [18],0.015 µg/mL
same,Solubility in organic solvents,Solubility,Soluble
same,Solubility in water,Solubility,hardly soluble
same,IC50,"AsPC-1 cells [19]; ASPC1, 24 h",0.08 µg/mL
same,time after drug treatment in which apoptosis was induced on AsPC-1 cells,AsPC-1 cells [19],approximately 24 hours
CCC(C)CC1CCC(O)(C(C)(O)C(=O)NC2C(=O)N3NCCCC3C(=O)N(O)C(C)C(=O)N3NCCCC3C(=O)N3CCC(C)(O)C3C(=O)N(O)C(C(C)C)C(=O)OC2C(C)C)OC1CC (centres unmarked) [deoxypolyoxypeptin],IC50,"[3]; HT-1080, HT1080, 24 hours, medium D",0.02 µg/mL
same,IC50,"[4]; K-ras-NRK, 24 hours, medium C",0.05 µg/mL
same,IC50,"[5]; PSN1, PSN-1, 24 hours, medium A",0.01 µg/mL
same,IC50,"[6]; BxPC-3, 24 hours, medium A",0.03 µg/mL
same,IC50,"[7]; K-ras-NIH3T3, 24 hours, medium A",0.1 µg/mL
same,IC50,"[8]; A4 (cerbB2-NIH3T3), 24 hours, medium A",0.06 µg/mL
same,IC50,"[9]; HL-60, 24 hours, medium A",0.04 µg/mL
same,IC50,"[10]; HHUA, 24 hours, medium D",0.05 µg/mL
same,IC50,"[11]; NIH3T3, 24 hours, medium A",0.05 µg/mL
same,IC50,"[12]; ASPC1, AsPC-1, 24 hours, medium A",0.08 µg/mL
same,IC50,"Rat fibroblast cell NRK; NRK, 24 hours, medium C",0.18 µg/mL
same,IC50,"[13]; K562, 24 hours, medium A",0.02 µg/mL
same,IC50,"Human epithelioma A431; A-431, A431, 24 hours, medium C",0.03 µg/mL
same,IC50,"[14]; RSV-NIH3T3 (src-transformed NIH3T3), 24 hours, medium A",0.06 µg/mL
same,IC50,"[15]; 24 hours, medium B",0.05 µg/mL
same,IC50,"[16]; Panc-1, 24 hours, medium A",0.05 µg/mL
same,LD50,mice,125 μg/mouse
same,antibacterial activity against gram-negative bacteria,Escherichia coli,did not exhibit any antibacterial activity
same,apoptosis-inducing activity on other human solid cancer cells,[17],have also an activity of inducing apoptosis
same,IC50,"AsPC-1 cells [18]; 2 days incubation, MTT, RPMI 1640 with 10% FBS",0.015 µg/mL
same,Solubility in organic solvents,Solubility,Soluble
same,Solubility in water,Solubility,hardly soluble
same,IC50,"AsPC-1 cells [19]; ASPC1, 24 hours incubation, RPMI 1640 with 10% FBS",0.08 µg/mL
same,time after drug treatment in which apoptosis was induced on AsPC-1 cells,AsPC-1 cells [19],approximately 24 hours
